What was measured:
[1] = molecular target: human β1-adrenergic receptor (Homo sapiens, UniProt P08588); assay: Second series: binding competition, human β1; details: for IC50: IC50 (nM) β1, Second series (human)
[2] = molecular target: human β2-adrenergic receptor (Homo sapiens, UniProt P07550); assay: Second series: binding competition, human β2; details: for IC50: IC50 (nM) β2, Second series (human); for β2 Selectivity (β1/β2): Second series (human)
Procedure: (R,S)- and (S,R)-desformoterol were screened, in duplicate at three concentrations (10^−9, 10^−7, 10^−5 M), for binding to human β1 and β2-adrenergic receptors. Compounds that inhibited specific binding ≧50% were then tested further at ten concentrations in duplicate in order to obtain full competition curves. Reference compounds were simultaneously tested at eight concentrations.

BEAS-2B cells = assay: Intrinsic activity: cAMP production by radioimmunoassay; type: cell-based; details: 100-times the Kd concentration, relative to isoproterenol (set to 1.0)
Procedure: The assessment of intrinsic activity was evaluated in BEAS-2B cells grown to confluence. […] Samples were assayed for cAMP by radioimmunoassay.

human β2-adrenergic receptor, sequence (P07550 whole entry): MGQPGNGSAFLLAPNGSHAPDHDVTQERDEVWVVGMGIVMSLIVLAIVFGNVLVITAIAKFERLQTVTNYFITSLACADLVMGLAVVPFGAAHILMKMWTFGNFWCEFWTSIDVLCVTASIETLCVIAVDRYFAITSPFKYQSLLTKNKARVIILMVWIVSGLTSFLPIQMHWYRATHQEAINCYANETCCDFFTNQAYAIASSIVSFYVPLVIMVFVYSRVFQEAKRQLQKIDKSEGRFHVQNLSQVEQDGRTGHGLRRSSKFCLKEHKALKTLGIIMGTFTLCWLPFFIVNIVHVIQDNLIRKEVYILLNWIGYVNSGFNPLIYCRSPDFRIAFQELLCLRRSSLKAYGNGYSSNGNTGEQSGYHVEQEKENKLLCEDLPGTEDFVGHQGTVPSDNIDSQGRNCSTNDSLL
human β1-adrenergic receptor, sequence (P08588 whole entry): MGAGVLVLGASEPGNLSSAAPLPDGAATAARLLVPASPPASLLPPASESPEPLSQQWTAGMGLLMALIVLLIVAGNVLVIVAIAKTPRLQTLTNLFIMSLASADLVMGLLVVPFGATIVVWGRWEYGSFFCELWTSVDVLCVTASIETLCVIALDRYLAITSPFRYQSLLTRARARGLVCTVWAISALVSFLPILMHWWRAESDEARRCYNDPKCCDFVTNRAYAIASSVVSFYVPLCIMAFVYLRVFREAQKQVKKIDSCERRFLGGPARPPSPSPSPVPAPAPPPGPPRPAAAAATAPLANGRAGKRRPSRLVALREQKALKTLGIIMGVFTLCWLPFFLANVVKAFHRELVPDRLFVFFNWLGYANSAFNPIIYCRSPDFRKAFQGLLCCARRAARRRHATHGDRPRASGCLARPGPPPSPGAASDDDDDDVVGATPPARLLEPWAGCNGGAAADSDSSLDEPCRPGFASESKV

With `COc1ccc(CC(C)NCC(O)c2ccc(O)c(N)c2)cc1` (single isomer, unassigned) [(R,R)-Desformoterol, 3-Amino-4-hydroxy-α-[[[2-(4-methoxyphenyl)-1-methylethyl]amino]methyl]-benzenemethanol] the IC50 [1] was 3180 nM, the IC50 [2] was 35.6 nM and the “β2 Selectivity (β1/β2)” value [2] was 89.

For `COc1ccc(CC(C)NCC(O)c2ccc(O)c(N)c2)cc1` [(R,R/S,S)-Desformoterol, 3-Amino-4-hydroxy-α-[[[2-(4-methoxyphenyl)-1-methylethyl]amino]methyl]-benzenemethanol], the IC50 [1] was 5140 nM, the IC50 [2] was 81.3 nM and the “β2 Selectivity (β1/β2)” value [2] was 63.

`CC(C)NCC(O)c1ccc(O)c(O)c1` (stereo not drawn) [Isoproterenol] was tested, and the “Intrinsic Activity (cAMP)” value (BEAS-2B cells) was 1.00.

For `CC(C)(C)NC[C@H](O)c1ccc(O)c(CO)c1` [(R)-Albuterol], the “Intrinsic Activity (cAMP)” value (BEAS-2B cells) was 0.44.

`COc1ccc(C[C@@H](C)NCC(O)c2ccc(O)c(N)c2)cc1` (stereo partly drawn) [(S,R)-Desformoterol, 3-Amino-4-hydroxy-α-[[[2-(4-methoxyphenyl)-1-methylethyl]amino]methyl]-benzenemethanol] showed an inhibition at 10 µM ([1]; read-out: inhibition of specific binding at β1) of 22% and an IC50 [2] of 1830 nM.

For `COc1ccc(CC(C)NCC(O)c2ccc(O)c(N)c2)cc1` (single isomer, unassigned) [(R,S)-Desformoterol, 3-Amino-4-hydroxy-α-[[[2-(4-methoxyphenyl)-1-methylethyl]amino]methyl]-benzenemethanol], the IC50 [1] was 1790 nM, the IC50 [2] was 3140 nM and the “β2 Selectivity (β1/β2)” value [2] was 0.6.

In the case of `COc1ccc(CC(C)NCC(O)c2ccc(O)c(N)c2)cc1` (single isomer, unassigned) [(S,S)-Desformoterol, 3-Amino-4-hydroxy-α-[[[2-(4-methoxyphenyl)-1-methylethyl]amino]methyl]-benzenemethanol], the IC50 [1] is reported as 64700 nM and the IC50 [2] is reported as > 10000 nM.

From patent US20010007679A1, “(S,R) FORMOTEROL METHODS AND COMPOSITIONS” (priority 1999, published 2001)
